From publication PMC4830886, “Extended evaluation on the ES-D3 cell differentiation assay combined with the BeWo transport model, to predict relative developmental toxicity of triazole compounds” (Archives of Toxicology, 2015)
Marks after values point to notes of the source that are not given here.

Experiments:
[1] = test system: ES-D3 cells; test: ES-D3 cell differentiation assay (differentiation into contracting cardiomyocytes); assay type: cell-based, mouse; details: for Corrected BMCd50: BMCd50 divided by relative Papp value (BeWo model); for IC50: Mus musculus, Cardiomyocyte, 240 h, concentration for 50 % reduction in number of differentiated EBs, BMD modelling, day 10, read-out: BMCd50
Procedure: The murine ES-D3 cell line was purchased from ATCC (Wesel, Germany). The cells were maintained in polystyrene cell culture flasks (Corning, The Netherlands) in Dulbecco’s modified Eagle’s medium (DMEM, Invitrogen, Breda, The Netherlands), supplemented with 20 % heat-inactivated fetal calf serum (Lonza, BioWhittaker, Verviers, Belgium), 50 U/ml penicillin with 50 μg/ml streptomycin (Invitrogen), 2 mM L-glutamine (Invitrogen), 0.1 mM β-mercaptoethanol (Sigma-Aldrich) and 1 % (v/v) nonessential amino acids (Invitrogen), at 37 °C and 5 % CO2 in a humidified atmosphere. Cells were kept undifferentiated with 1000 U/ml murine leukemia inhibiting factor (LIF) (Sigma-Aldrich) and subcultured every 2–3 days using nonenzymatic cell dissociation solution (Sigma-Aldrich) to detach the cells.
Differentiation assays were carried out to detect the effect of test compounds on the differentiation of ES-D3 cells into contracting cardiomyocytes using culture medium in the absence of LIF. On day 1, droplets of 20 μl cell suspension (3.75 × 10^4 cells/ml) were placed as hanging drops, to which the test compounds 0594, 0595, 0596, 0599, 0600 and 0618 were added at concentrations ranging from 0.2 to 60 μM (final solvent concentration 0.2 % DMSO), on the inner side of the lid of a 96-well plate. Sterile lids of Eppendorf tubes were placed on the corner wells of the plates to prevent contact of the drops with the plate. The wells of the 96-well plate were filled with 250 μl phosphate buffered saline (PBS) (Invitrogen), and the plate was sealed with Micropore tape (3M, Neuss, Germany) to prevent evaporation of the hanging drops. Plates were incubated for 3 days at 37 °C and 5 % CO2 in a humidified atmosphere. In the drops, cells formed embryonic bodies (EBs), which were transferred to nontissue culture-treated Petri dishes (diameter 6 cm, Greiner) with 5 ml of medium with test compound. On day 5, the EBs were transferred to a 24-well plate (Corning) with 1 ml of medium with test compound, with one EB per well. On day 10, the number of wells containing contracting EBs was determined by visual inspection using a light microscope. Solvent control (0.2 % DMSO in culture medium) was included in each experiment. The solvent control was also used to assess the quality of the batch of ES-D3 cells used in each individual test (cells being randomly distributed over test groups and solvent control). Tests were accepted for further analysis if at least 21 of the 24 wells of the solvent control contained contracting cardiomyocytes. For each test compound, three independent assays were performed. The results were expressed as “fraction of total,” with 1.0 implying all EBs in one 24-well plate differentiated into contracting cardiomyocytes.
Different dichotomous concentration–response models were fitted to the in vitro developmental toxicity data obtained from the ES-D3 cell differentiation assay to calculate benchmark concentrations (BMC) using Environmental Protection Agency benchmark dose (BMD) software version 2.4. For each test compound, the BMCd50, representing the concentration for a 50 % reduction in the number of differentiated EBs, was derived. Models included in the evaluation were the gamma, logistic, loglogistic, probit, logprobit, multistage, weibull and the quantal-linear model. […] The lowest BMCd50 value was chosen from the accepted models.
To combine in vitro developmental toxicity data obtained from the ES-D3 cell differentiation assay with placental transfer data obtained from the BeWo transport model, a corrected BMCd50 value was calculated by dividing the BMCd50 values by the relative Papp values, as described in Li et al. ([2015]).

[2] = test system: time-mated Wistar rats; test: in vivo maternal and prenatal developmental toxicity screening study (OECD 414 principles); details: rat
Source text: The major differences to a full guideline study were the smaller sample size, using 9–10 instead of at least 16 pregnant rats, per test substance.
The animals were paired by the breeder [time-mated Wistar rats, Crl: WI (Han), Charles River Laboratories, Sulzfeld, Germany], between 10 and 12 weeks of age, and supplied on the day of evidence of mating; this day is referred to as gestational day (GD) 0 and following day as GD 1. […] This strain has been extensively used, both in our laboratory and elsewhere, and is sensitive to reproductive toxicants. All rats were housed individually in Makrolon cages with Lignocel PS 14 fibers dust-free bedding and wooden enrichment blocks. The cages were kept in climate-controlled rooms at 20–24 °C with a relative humidity of 30–70 %, an air exchange rate of 15 times per hour and a 12-h light/dark cycle. Diet (Ground Kliba SA, Switzerland) and tap water were provided ad libitum. In-life data (mortality, clinical signs, body weights and food consumption) were recorded throughout the study, but presented only if relevant for the interpretation of prenatal developmental effects.
The test compounds administered by gavage were administrated between 100 and 600 mg/kg bw/day using the vehicle 1 % carboxymethylcellulose in deionized water. The standard dose volume was 10 ml/kg bw.
On GD 20, the surviving dams were anesthetized with isoflurane, killed by decapitation and examined macroscopically. For each dam, the uterus was opened and the number, distribution and classification of implantation sites (live fetus, early and late fetal resorptions, and dead fetus) were determined. The fetuses were removed, sexed and fetal body weight determined. Gross pathological examination of the fetuses, including assessment of abnormalities of the fetal membranes, placentas, amniotic fluid and umbilical cord, was performed. Subsequently, all fetuses were killed by injection of pentobarbital. […] The other half of the fetuses of each dam was fixed in Harrison’s fluid. […] A permanent structural change that is likely to affect adversely the survival or health was assessed as malformation. A change that also occurs in the fetuses of control animals and/or is unlikely to affect adversely the survival or health was assessed as variation. This includes delays in growth or morphogenesis that have otherwise followed a normal pattern of development.
Maternal toxicity was classified as slight if body weight and/or carcass weight reduction is not above 10 %, moderate if body weight and/or carcass weight reduction is between 10 and 20 % and severe if body weight and/or carcass weight reduction is above 20 %. All the in vivo data are expressed as the affected fetuses/litter.

[3] = gavage GD 6–19, 200 mg/kg, affected fetuses/litter
[4] = gavage GD 6–19, 600 mg/kg, affected fetuses/litter
[5] = female, Wistar Crl:WI(Han), in vivo

| SMILES | Corrected BMCd50 [1] [µM] | IC50 [1] [µM] | Early resorption (%) ([2]; gavage GD 6–19, 200 mg/kg) | Fetal weight (%) ([2]; gavage GD 6–19, 200 mg/kg) | Late resorption (%) ([2]; gavage GD 6–19, 200 mg/kg) | Maternal toxicity classification ([2]; gavage GD 6–19, 200 mg/kg) | Maternal toxicity findings ([2]; gavage GD 6–19, 200 mg/kg) | Placenta weight (%) ([2]; gavage GD 6–19, 200 mg/kg) | Postimplantation loss (%) ([2]; gavage GD 6–19, 200 mg/kg) | Total number of fetuses ([2]; gavage GD 6–19, 200 mg/kg) | Early resorption (%) ([2]; gavage GD 6–19, 600 mg/kg) | Fetal weight (%) ([2]; gavage GD 6–19, 600 mg/kg) | Late resorption (%) ([2]; gavage GD 6–19, 600 mg/kg) | Placenta weight (%) ([2]; gavage GD 6–19, 600 mg/kg) | Postimplantation loss (%) ([2]; gavage GD 6–19, 600 mg/kg) | Total number of fetuses ([2]; gavage GD 6–19, 600 mg/kg) | Ranking (in vivo prenatal developmental toxicity potency) [2, 5] | also measured |
| --- | --- | --- | --- | --- | --- | --- | --- | --- | --- | --- | --- | --- | --- | --- | --- | --- | --- | --- |
| CC(c1nc(-c2ccc(C#N)cc2)cs1)C(O)(Cn1cncn1)c1ccc(F)cc1 (stereo not shown) [compound 0596, 4-{2-[2-(4-Fluoro-phenyl)-2-hydroxy-1-methyl-3-[1,2,4]triazol-1-yl-propyl]-thiazol-4-yl}-benzonitrile] | 18.1 | 11.4 | 2.9 | 108 | 0.0 | No | NAD | 127** % | 2.9 | 109 | 7.7 | 105 | 0.8 | 133 | 8.6% | 102 |  | Misshapen basisphenoid [2, 3]: 30.6%; Misshapen cervical arch [2, 3]: 14.3%; Severely malformed skull bones [2, 3]: 5.3%; Maternal toxicity classification ([2]; gavage GD 6–19, 600 mg/kg): No; Maternal toxicity findings ([2]; gavage GD 6–19, 600 mg/kg): NAD; Malformation, Total (skeletal) [2, 4]: Total 100 %**; Misshapen basisphenoid [2, 4]: 13%; Misshapen cervical arch [2, 4]: 70.2%; Severely malformed skull bones [2, 4]: 82.8%; Ranking (in vivo prenatal developmental toxicity potency) ([2]; 1 = highest potential, 6 = lowest, among the six test compounds): 2 |
| OC(c1cccnc1)c1c(-c2ccc(F)cc2F)csc1-c1ccc(F)cc1F (stereo not shown) [compound 0595, [2,4-Bis-(2,4-difluoro-phenyl)-thiophen-3-yl]-pyridin-3-yl-methanol] | 141.8 | 11 | 21.9 | 102 | 2.0 | No | NAD | 117% | 24 | 74 | 100 |  | 0.0 |  | 100.0** % | 0 | 6 | Malformation, Total (skeletal) [2, 3]: Total 0%; Maternal body weight (BW) ([2]; gavage GD 6–19, 600 mg/kg): 74%; Maternal carcass weight (CW) ([2]; gavage GD 6–19, 600 mg/kg): 89%; Maternal mortality ([2]; gavage GD 6–19, 600 mg/kg): 30%; teratogenic potential ([2]; overall assessment of the in vivo study): no teratogenic potential |
| OC(c1cccnc1)c1c(-c2ccc(F)cc2F)noc1-c1ccc(Cl)cc1F (stereo not shown) [compound 0594, [5-(4-Chloro-2-fluoro-phenyl)-3-(2,4-difluoro-phenyl)-isoxazol-4-yl]-pyridin-3-yl-methanol] | 23.3 | 6.9 | 5.9 | 107 | 1.9 | No | No | 110% | 7.8 | 99 | 14.1 | 101 | 0.8 | 116 | 14.9% | 98 | 4 | Bent femur [2, 4]: Bent femur 12.5% |
